The source of these data is patent US20260308177A1, “THIAZOLOPYRIDIN-7(4H)-ONE WRN INHIBITORS” (NIMBUS WADJET, INC., priority 2023, published 2026).

Each structure is given as a SMILES string. Like-named read-outs stand apart in the source and are kept apart here.

For experiment [1], the target named is T1, human Werner helicase (WRN-BV08, amino acids 517-1235, L1074F) (Homo sapiens, UniProt Q14191, L1074F).
T1 construct: TEV-cleavable 8×His tag (C, cleaved yes); made in house; host or cells: Sf9 insect cells (baculovirus)
Kind of experiment: WRN (BV08) ADP-Glo Assay (ATPase inhibition). It is filed as biochemical. From the text: Example 2: WRN (BV08) ADP-Glo Assay Protocol
Bovine skin gelatin (BSG), dimethyl sulfoxide (DMSO), Pluronic F-127 and tris(2-carboxyethyl)phosphine hydrochloride solution (TCEP) were purchased from Sigma-Aldrich (St. Louis, MO) at the highest level of purity possible. Bicine buffer solution was purchased from Alfa Aesar (Tewksbury, MA) and compound NSC-617145 was purchased from Tocris (Minneapolis, MN). DNA duplex was synthesized at BGI (Shenzhen, China) and was composed of strand 1 with the sequence 5′-[…]-3′ (SEQ ID NO.: 1) and strand 2 with the sequence 5′-[…]-3′ (SEQ ID NO.: 2). DNA strands were annealed by heating to 95° C. for 5 minutes followed by slow cooling to room temperature. Compounds in 100% DMSO (0.1 μl) were spotted into a 384-well white polystyrene Optiplate-384 (Perkin Elmer; Waltham, MA) assay plate using a LabCyte Echo 550 (Agilent; Santa Clara, CA). DMSO (0.1 μl) was added to columns 12, rows A-H and column 24, rows I-P for the maximum signal control. Compound NSC-617145 (0.1 μl) was added to columns 12, rows I-P and 24, rows A-H for the minimum signal control (100% inhibition). Compounds/DMSO were preincubated for 15 minutes at 25° C. with 5 μl 2×WRN (BV08), prepared as described below, in assay buffer containing 20 mM Bicine (pH=7.5), 1 mM MgCl2, 10 mM KCl, 0.1% Pluronic F-127, 0.005% BSG, 1 mM TCEP. The reaction was initiated by the addition of 5 μl 2× substrate mixture in assay buffer and incubated for 60 minutes at 25° C. The final concentrations of the assay components were 0.15 nM WRN, 5 μM ATP, and 0.1 nM DNA duplex. The final DMSO concentration was 1% and the reference compound concentration (NSC-617145) used for the minimal signal control was 20 μM. The reaction was stopped by the addition of the ADP-Glo Kit components (Promega; Madison, WI) as directed and the relative luminescence units (RLU) were read on an Envision 2104 (Perkin Elmer; Waltham, MA). % inhibition calculation:
Where RLU=relative luminescence units, sample=signal in sample well, and MIN and MAX are the respective minimum and maximum signal controls.
Four-parameter IC50 fit equation:
Where top and bottom are normally allowed to float but may be fixed at 100 or 0 respectively in a 3-parameter fit. Y is the % inhibition and X is the compound concentration.
Molecular Biology and virus production. The DNA encoding human Werner helicase (Uniprot Q14191, amino acids 517-1235 with L1074F point mutation) was generated with codon-optimization for E. coli expression and subcloned into the pFastBac vector with a TEV cleavable 8×His tag (WRN—BV08). The baculovirus from the expression plasmid WRN—BV08 was generated from transfection and amplification following the manufacturer's instructions.
Sf9 cells grown in SF900II media were infected with 1:200 WRN—BV08 P2 virus and incubated for protein expression for 72 h at 27° C. The WRN protein was purified using the following protocol. The cell pellets were thawed and resuspended in buffer A (50 mM Tris, pH 7.5, 500 mM NaCl, 1 mM TCEP, 10% Glycerol) supplemented with 0.5% CHAPS, 1 mM [COMPOUND LEFT OUT], 1 μg/ml Leupeptin, 1 μg/ml Pepstatin, and the Pierce Universal Nuclease and cocktail tablet. Cleared lysates were loaded onto a Ni Sepharose™ excel column and washed with buffer A and bound protein was eluted with buffer A supplemented with 300 mM imidazole. The eluted protein was dialyzed against buffer A and digested by His-tagged TEV (1:5 ratio) overnight at 4° C. ZnCl2 was added into the sample at final 15 μM before loading onto a second Ni Sepharose™ excel column. Untagged WRN protein was eluted from the column with buffer A supplemented with 20 mM imidazole, dialyzed overnight into buffer B (50 mM Tris, pH 7.5, 1 mM TCEP, 10% Glycerol) supplemented with 150 mM NaCl and loaded onto a Heparin column. Proteins were eluted with a step gradient of buffer B supplemented with 150 mM, 200 mM, 300 mM and 500 mM NaCl. […]
(In general: ADP-Glo turns the ADP formed in a reaction into a luminescent signal.)

Experiment [2] concerns the target T2, p21 in HCT116 cells (Homo sapiens, UniProt Q14191).
T2 construct: p21 induction in-cell western, 24 h
Kind of experiment: p21 induction in HCT116 cells. It is filed as cell-based. The conditions noted are these: 24 h, p21/GAPDH signal ratio, % activation vs internal reference WRN inhibitor, read-out: P21_EC50. On the procedure: (§1) Example 3: Method for Determining Effect on p21 Induction in Cells
(§2) The colon carcinoma cell line HCT116 was obtained from ATCC and cultured in growth medium consisting of Mccoy's 5A Medium (Gibco 16600108) supplemented with 10% FBS (Transgene FS201-02) and 100 units/mL penicillin-streptomycin (Gibco 15140122) and maintained at 37° C. under 5% CO2. On the day of seeding, 2,000 cells in 30 μL of culture media were plated per well to Poly-D-Lysine 384 Well Black Clear Plates (Biocoat 356663) and incubated overnight at 37° C. under 5% CO2. The following day, compounds were serially diluted in DMSO for a total of 11 test concentrations. The typical starting concentration of cpds was 10 uM with 2-fold dilutions. Next, 150 nL of diluted compound was added in duplicate to the assay plate, using an Echo 655 (Labcyte). The plate was centrifuged at 500 RPM for 1 min and then incubated at 37° C. under 5% CO2 for 24 h. After 24 h, medium was removed, and cells were fixed by adding 40 μL of 4% paraformaldehyde solution to each well and incubated for 20 min at room temperature. The plate was then washed 4 times with 100 μL per well of wash buffer (PBS with 0.1% Tween-20) using a microplate washer. Next, 30 μL of ice-cold methanol was added to each well and the plate was incubated at −20° C. for 10 min. The plate was washed 4 times with 100 µL per well of wash buffer by a microplate washer, then 30 μL per well of blocking buffer ((Intercept PBS blocking buffer (LI-COR 927-70001) with 0.05% Tween-20)) was added and the plate was incubated at room temperature with shaking for 2 h. Next, to each test well, 20 μL of primary antibody solution ((p21 Waf1/CIP (12D1) Rabbit mAb (Cell Signaling Technologies 2947) diluted 1:1000 and GAPDH (D4C6R) Mouse mAb (Cell Signaling Technologies 97166) diluted 1:2000 in blocking buffer)) was added and the plate was placed at 4° C., overnight. The following day, the plate was washed 5 times with 100 μL per well of wash buffer using a microplate washer for 5 min. 20 μL per well of secondary antibody ((IRDye 680CW Goat anti-Mouse IgG (H+L) (LI-COR 926-68070) diluted 1: 2000 in Blocking Buffer and IRDye 800CW Goat anti-Rabbit IgG (H+L) (LI-COR 926-32211) diluted 1: 2000 in Blocking Buffer)) was then added and the plate was stored for 2 h in the dark at room temperature with shaking. The plate was then washed 4 times with 100 μL per well of wash buffer again using a microplate washer. Finally, the p21 signal and the GAPDH signal were quantified using a LI-COR Odyssey CLx Imager machine reading at 800 nm and 700 nm, respectively. Each plate contained DMSO control (low control) and an internal reference WRN inhibitor (high control) respectively. For quantitation, the 800 nm/700 nm ratio was calculated for each well to give fold p21 induction and then percent activation for each compound well was calculated as follows ((100×(ratio cpd well-ratio low control)/(ratio high control−ratio low control)). EC50 values for each compound was generated after non-linear regression curve fitting using commercially available software.

Experiment [3] can be described thus: p21 induction in HCT116 cells. Format: cell-based, human. As to conditions: read-out: P21_EC50, 24 h, p21/GAPDH signal ratio, % activation vs internal reference WRN inhibitor. The protocol: as §1, §2
The mark [4] stands for this setting: 0.15 nM WRN, 5 μM ATP, 0.1 nM DNA duplex, pH 7.5, 15 min preincubation, 60 min at 25° C., 1% DMSO, read-out: ADP-Glo_hWRN_IC50.

T1 sequence (Q14191 with tags, fused parts or gaps L1074F): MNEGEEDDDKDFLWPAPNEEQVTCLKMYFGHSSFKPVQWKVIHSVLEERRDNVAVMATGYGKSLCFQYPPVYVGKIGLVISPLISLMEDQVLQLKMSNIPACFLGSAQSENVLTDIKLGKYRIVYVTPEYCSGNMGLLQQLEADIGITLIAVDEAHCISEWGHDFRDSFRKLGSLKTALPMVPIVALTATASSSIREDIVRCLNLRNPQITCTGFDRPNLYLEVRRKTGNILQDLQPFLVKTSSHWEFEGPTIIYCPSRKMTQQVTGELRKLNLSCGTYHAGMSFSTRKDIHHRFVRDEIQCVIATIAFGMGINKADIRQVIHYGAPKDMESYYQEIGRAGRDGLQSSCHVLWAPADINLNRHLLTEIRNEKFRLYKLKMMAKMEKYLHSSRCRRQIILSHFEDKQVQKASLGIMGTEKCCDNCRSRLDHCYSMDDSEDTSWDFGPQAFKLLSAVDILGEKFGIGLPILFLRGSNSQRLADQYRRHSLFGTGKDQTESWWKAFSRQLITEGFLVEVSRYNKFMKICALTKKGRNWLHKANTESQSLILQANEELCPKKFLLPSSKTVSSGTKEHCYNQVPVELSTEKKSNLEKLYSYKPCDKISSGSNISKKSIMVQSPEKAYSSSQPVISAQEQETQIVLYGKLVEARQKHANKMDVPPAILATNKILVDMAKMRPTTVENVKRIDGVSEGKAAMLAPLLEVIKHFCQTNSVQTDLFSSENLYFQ
T2 sequence (Q14191 whole entry): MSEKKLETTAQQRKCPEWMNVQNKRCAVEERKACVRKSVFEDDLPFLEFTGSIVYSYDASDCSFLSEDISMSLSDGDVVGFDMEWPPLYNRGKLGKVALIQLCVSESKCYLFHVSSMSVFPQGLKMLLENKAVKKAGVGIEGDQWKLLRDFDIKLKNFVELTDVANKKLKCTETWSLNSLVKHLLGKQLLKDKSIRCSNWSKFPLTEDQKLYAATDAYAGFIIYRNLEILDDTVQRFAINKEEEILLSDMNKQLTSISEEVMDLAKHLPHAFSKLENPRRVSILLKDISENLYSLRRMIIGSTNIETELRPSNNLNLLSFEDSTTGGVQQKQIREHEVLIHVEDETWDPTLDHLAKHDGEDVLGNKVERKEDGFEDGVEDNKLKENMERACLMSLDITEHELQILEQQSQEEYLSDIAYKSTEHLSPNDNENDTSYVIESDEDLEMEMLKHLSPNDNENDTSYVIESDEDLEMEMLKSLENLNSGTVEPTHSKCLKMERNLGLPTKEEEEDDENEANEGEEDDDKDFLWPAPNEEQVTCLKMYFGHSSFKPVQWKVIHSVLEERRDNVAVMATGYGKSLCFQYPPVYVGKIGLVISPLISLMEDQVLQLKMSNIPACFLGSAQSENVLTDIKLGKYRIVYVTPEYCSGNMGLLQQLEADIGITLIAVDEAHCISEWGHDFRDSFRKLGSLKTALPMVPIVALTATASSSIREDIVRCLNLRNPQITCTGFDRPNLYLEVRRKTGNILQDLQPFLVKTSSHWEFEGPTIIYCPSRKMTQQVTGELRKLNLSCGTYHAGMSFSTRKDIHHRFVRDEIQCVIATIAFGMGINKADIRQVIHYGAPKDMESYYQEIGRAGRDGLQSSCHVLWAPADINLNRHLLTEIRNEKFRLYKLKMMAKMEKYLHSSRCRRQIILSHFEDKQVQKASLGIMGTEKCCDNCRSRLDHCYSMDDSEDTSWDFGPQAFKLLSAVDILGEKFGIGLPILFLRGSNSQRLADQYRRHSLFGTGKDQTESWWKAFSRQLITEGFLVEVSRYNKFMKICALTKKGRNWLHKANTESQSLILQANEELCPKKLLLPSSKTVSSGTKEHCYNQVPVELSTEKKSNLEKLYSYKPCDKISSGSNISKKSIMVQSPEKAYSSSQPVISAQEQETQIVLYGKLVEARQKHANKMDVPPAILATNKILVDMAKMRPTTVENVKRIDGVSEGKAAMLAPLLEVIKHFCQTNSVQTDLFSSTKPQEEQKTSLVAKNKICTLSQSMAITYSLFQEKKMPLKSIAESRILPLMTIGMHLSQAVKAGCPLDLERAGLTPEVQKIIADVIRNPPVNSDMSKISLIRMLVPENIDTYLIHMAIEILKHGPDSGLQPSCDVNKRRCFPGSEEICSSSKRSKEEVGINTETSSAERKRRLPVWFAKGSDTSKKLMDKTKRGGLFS

With `CCc1c(N2CCN(C(=O)c3ncnc(C)c3O)CC2)c(=O)c2nc(-c3cnn(C)c3)sc2n1CC(=O)Nc1ccc(C(F)(F)F)cc1Cl` [1-7], in experiment [1] (setting [4]), the IC50 was 0.005 to 0.05 µM.

On to `CCc1c(N2CCN(C(=O)c3ncnc(C)c3O)CC2)c(=O)c2nc(C3=CCOCC3)sc2n1CC(=O)Nc1ccc(C(F)(F)F)cc1Cl` [1-3], for which the EC50 in experiment [2] is 2 to 5 µM.

On to `CCc1c(N2CCN(C(=O)c3ncnc(C)c3O)CC2)c(=O)c2nc(-c3ccnc(OC)c3)sc2n1CC(=O)Nc1ccc(C(F)(F)F)cc1Cl` [Compound I-1, N-(2-chloro-4-(trifluoromethyl)phenyl)-2-(5-ethyl-6-(4-(5-hydroxy-6-methylpyrimidine-4-carbonyl)piperazin-1-yl)-2-(2-methoxypyridin-4-yl)-7-oxothiazolo[5,4-b]pyridin-4(7H)-yl)acetamide], for which, in experiment [1] (setting [4]), the IC50 fell in the range of 0.005 to 0.05 µM. Besides, the EC50 in experiment [2] lay in the range of 0.5 to 2 µM.

Turning to `CCc1c(N2CCN(C(=O)c3ncnc(C)c3O)CC2)c(=O)c2nc(N3CCCC3)sc2n1CC(=O)Nc1ccc(C(F)(F)F)cc1Cl` [Compound I-4, N-(2-chloro-4-(trifluoromethyl)phenyl)-2-(5-ethyl-6-(4-(5-hydroxy-6-methylpyrimidine-4-carbonyl)piperazin-1-yl)-7-oxo-2-(pyrrolidin-1-yl)thiazolo[5,4-b]pyridin-4(7H)-yl)acetamide], the IC50 in experiment [1] (setting [4]) fell in the range of 0.005 to 0.05 µM. Further, in experiment [2], the EC50 was in the range of 2 to 5 µM.

Regarding `CCc1c(N2CCN(C(=O)c3ncnc(C)c3O)CC2)c(=O)c2nc(-c3cnn(C)c3)sc2n1CC(=O)Nc1ccc(C(F)(F)F)cc1Cl` [Compound I-7, N-(2-chloro-4-(trifluoromethyl)phenyl)-2-(5-ethyl-6-(4-(5-hydroxy-6-methylpyrimidine-4-carbonyl)piperazin-1-y1)-2-(1-methyl-1H-pyrazol-4-y1)-7-oxothiazolo[5,4-b]pyridin-4(7H)-yl)acetamide], in experiment [2], the EC50 was more than 5 µM.

For the molecule `CCc1c(N2CCN(C(=O)c3ncnc(C)c3O)CC2)c(=O)c2sc(-c3ccnc(OC)c3)nc2n1CC(=O)NC12CC(C(F)(F)F)(C1)C2` [Compound I-8, 2-(5-ethyl-6-(4-(5-hydroxy-6-methylpyrimidine-4-carbonyl)piperazin-1-yl)-2-(2-methoxypyridin-4-y1)-7-oxothiazolo[4,5-b]pyridin-4(7H)-y1)-N-(3-(trifluoromethyl)bicyclo[1.1.1]pentan-1-yl)acetamide], the IC50 in experiment [1] (setting [4]) lay in the range of 0.005 to 0.05 µM. Further, the EC50 in experiment [2] was more than 5 µM.

In turn, `C=C(C)c1nc2c(=O)c(N3CCN(C(=O)c4ncnc(C)c4O)CC3)c(CC)n(CC(=O)Nc3ccc(C(F)(F)F)cc3Cl)c2s1` [Compound I-6, N-(2-chloro-4-(trifluoromethyl)phenyl)-2-(5-ethyl-6-(4-(5-hydroxy-6-methylpyrimidine-4-carbonyl)piperazin-1-yl)-7-oxo-2-(prop-1-en-2-yl)thiazolo[5,4-b]pyridin-4(7H)-yl)acetamide] displayed an IC50 in experiment [1] of 0.005 to 0.05 µM. The EC50 in experiment [3] was 0.5 to 2 µM.

With `CCc1c(N2CCN(C(=O)c3ncnc(C)c3O)CC2)c(=O)c2sc(-c3ccnc(OC)c3)nc2n1CC(=O)Nc1ccc(C(F)(F)F)cc1Cl` [Compound I-2, N-(2-chloro-4-(trifluoromethyl)phenyl)-2-(5-ethyl-6-(4-(5-hydroxy-6-methylpyrimidine-4-carbonyl)piperazin-1-yl)-2-(2-methoxypyridin-4-y1)-7-oxothiazolo[4,5-b]pyridin-4(7H)-yl)acetamide], in experiment [1] (setting [4]), the IC50 is less than 0.005 µM. The EC50 in experiment [2] was less than 0.5 µM.

Consider `CCc1c(N2CCN(C(=O)c3c(O)ccnc3OC)CC2)c(=O)c2nc(-c3ccnc(OC)c3)sc2n1CC(=O)Nc1ccc(C(F)(F)F)cc1Cl` [Compound I-5, N-(2-chloro-4-(trifluoromethyl)phenyl)-2-(5-ethyl-6-(4-(4-hydroxy-2-methoxynicotinoyl)piperazin-1-y1)-2-(2-methoxypyridin-4-y1)-7-oxothiazolo[5,4-b]pyridin-4(7H)-y1)acetamide], for which the IC50 in experiment [1] (setting [4]) is 0.005 to 0.05 µM. Further, the EC50 in experiment [2] is 0.5 to 2 µM.

As to `CCc1c(N2CCN(C(=O)c3ncnc(C)c3O)CC2)c(=O)c2nc(C3=CCOCC3)sc2n1CC(=O)Nc1ccc(C(F)(F)F)cc1Cl` [Compound I-3, N-(2-chloro-4-(trifluoromethyl)phenyl)-2-(2-(3,6-dihydro-2H-pyran-4-y1)-5-ethyl-6-(4-(5-hydroxy-6-methylpyrimidine-4-carbonyl)piperazin-1-yl)-7-oxothiazolo[5,4-b]pyridin-4(7H)-yl)acetamide], in experiment [1] (setting [4]), the IC50 fell in the range of 0.005 to 0.05 µM.
